Columns and labels:
Conditions in all cases: 72 h
Calu-3 [1] = assay: cell viability relative to DMSO; higher = less toxic
Caco-2 [2] = assay: as above
U2OS [3] = assay: as above
HepG2 [4] = assay: as above
Vero E6 [5] = assay: as above
Calu-3 [6] = assay: drug sensitivity score (DSS) for viability; higher = more toxic; extreme values may be limits of the assay
Caco-2 [7] = assay: as above
U2OS [8] = assay: as above
HepG2 [9] = assay: as above
Vero E6 [10] = assay: as above
Calu-3 [11] = assay: relative viability EC50 (midpoint between 100% and the lowest measured viability); higher = less toxic
Caco-2 [12] = assay: as above
Vero E6 [13] = assay: as above
U2OS [14] = assay: as above
HepG2 [15] = assay: as above

SMILES | cell viability (Calu-3 [1]; 1 nM) [%] | cell viability (Calu-3 [1]; 10 nM) [%] | cell viability (Calu-3 [1]; 100 nM) [%] | cell viability (Calu-3 [1]; 1000 nM) [%] | cell viability (Calu-3 [1]; 10000 nM) [%] | cell viability (Caco-2 [2]; 1 nM) [%] | cell viability (Caco-2 [2]; 10 nM) [%] | cell viability (Caco-2 [2]; 100 nM) [%] | cell viability (Caco-2 [2]; 1000 nM) [%] | cell viability (Caco-2 [2]; 10000 nM) [%] | cell viability (U2OS [3]; 1 nM) [%] | cell viability (U2OS [3]; 10 nM) [%] | cell viability (U2OS [3]; 100 nM) [%] | cell viability (U2OS [3]; 1000 nM) [%] | cell viability (U2OS [3]; 10000 nM) [%] | cell viability (HepG2 [4]; 1 nM) [%] | cell viability (HepG2 [4]; 10 nM) [%] | cell viability (HepG2 [4]; 100 nM) [%] | cell viability (HepG2 [4]; 1000 nM) [%] | cell viability (HepG2 [4]; 10000 nM) [%] | cell viability (Vero E6 [5]; 1 nM) [%] | cell viability (Vero E6 [5]; 10 nM) [%] | cell viability (Vero E6 [5]; 100 nM) [%] | cell viability (Vero E6 [5]; 1000 nM) [%] | cell viability (Vero E6 [5]; 10000 nM) [%] | drug sensitivity score (Calu-3 [6]) | drug sensitivity score (Caco-2 [7]) | drug sensitivity score (U2OS [8]) | drug sensitivity score (HepG2 [9]) | drug sensitivity score (Vero E6 [10]) | relative viability EC50 (Calu-3 [11]) [µM] | relative viability EC50 (Caco-2 [12]) [µM] | relative viability EC50 (Vero E6 [13]) [µM] | relative viability EC50 (U2OS [14]) [µM] | relative viability EC50 (HepG2 [15]) [µM]
COc1cc2c(Oc3ccc4[nH]c(C)cc4c3F)ccnc2cc1OCC1(N)CC1 [anlotinib] | 94.8 | 93.4 | 99.3 | 100 | 84.5 | 91.7 | 93.8 | 94.4 | 87.4 | 76.2 | 95.1 | 102 | 96.9 | 99.4 | 54.7 | 106 | 99.6 | 101 | 103 | 59.2 | 91.2 | 98.6 | 97 | 95.2 | 84.4 | 0.2 | 1.8 | 2.4 | 1.8 | 0.5 | > 10 | > 10 | > 10 |  | 
CCOCCn1c(C2CCN(CCc3ccc(C(C)(C)C(=O)O)cc3)CC2)nc2ccccc21 [bilastine] | 98.1 | 106 | 93.5 | 97.8 | 99.5 | 102 | 87.5 | 85.6 | 92.5 | 87.8 | 96.6 | 98.2 | 103 | 103 | 95.7 | 94.3 | 96 | 104 | 97.6 | 100 |  |  |  |  |  | 0 | 3.1 | 0 | 0 |  | > 10 | > 10 |  | > 10 | > 10
CN(C)C(=O)COC(=O)Cc1ccc(OC(=O)c2ccc(NC(=N)N)cc2)cc1 [camostat-mesilate] | 100 | 106 | 98.2 | 110 | 103 | 102 | 98.9 | 104 | 105 | 108 | 97.8 | 102 | 94.2 | 104 | 102 |  |  |  |  |  | 110 | 99.7 | 101 | 103 | 106 | 0 | 0 | 0 |  | 0 | > 10 | > 10 | > 10 | > 10 | 
Nc1ccncc1 [dalfampridine] | 102 | 104 | 90.9 | 99 | 100 | 102 | 108 | 99.1 | 106 | 96 |  |  |  |  |  |  |  |  |  |  | 107 | 102 | 101 | 101 | 98.9 | 0 | 0 |  |  | 0 | > 10 | > 10 | > 10 |  | 
CN(C)CCOC(c1ccccc1)c1ccccc1 [diphenhydramine] | 97.5 | 104 | 114 | 112 | 105 | 100 | 93.9 | 96.1 | 91.8 | 128 | 102 | 103 | 104 | 96.5 | 102 | 97.8 | 93.3 | 95.3 | 103 | 84.4 |  |  |  |  |  | 0 | 0 | 0 | 0.2 |  | > 10 | > 10 |  | > 10 | > 10
CC(C(=O)O)c1cccc(Oc2ccccc2)c1 (stereo not drawn) [fenoprofen] | 98.1 | 112 | 111 | 103 | 103 | 98.4 | 93.5 | 98.7 | 101 | 108 | 96.7 | 99.9 | 97.5 | 103 | 105 |  |  |  |  |  | 101 | 94 | 95.3 | 88.7 | 112 | 0 | 0 | 0 |  | 0 | > 10 | > 10 | > 10 | > 10 | 
Oc1cc(O)c(Cl)cn1 [gimeracil] | 107 | 105 | 104 | 98.3 | 92.4 | 97.8 | 92.7 | 97.7 | 95.8 | 98.1 | 100 | 100 | 104 | 98.5 | 104 | 105 | 106 | 98.3 | 96.2 | 87.2 |  |  |  |  |  | 0 | 0 | 0 | 0.2 |  | > 10 | > 10 |  | > 10 | > 10
Cc1ccnc2c1CCCC2C(N)=S (stereo not drawn) [isotiquimide] | 95.1 | 86.7 | 98.1 | 107 | 106 | 106 | 102 | 99.9 | 96 | 110 | 102 | 97.4 | 100 | 101 | 102 | 103 | 100 | 92.4 | 99.4 | 98.6 |  |  |  |  |  | 0 | 0 | 0 | 0 |  | > 10 | > 10 |  | > 10 | > 10
NCCCC[C@H](N[C@@H](CCc1ccccc1)C(=O)O)C(=O)N1CCC[C@H]1C(=O)O [lisinopril] | 109 | 94.7 | 110 | 98.8 | 93.4 |  |  |  |  |  | 102 | 95.7 | 95 | 97 | 97.2 |  |  |  |  |  | 104 | 105 | 102 | 101 | 99.2 | 0 |  | 0 |  | 0 | > 10 |  | > 10 | > 10 | 
CCCN1C[C@H](CSC)C[C@@H]2c3cccc4[nH]cc(c34)C[C@H]21 [pergolide] | 89.8 | 105 | 104 | 99.7 | 101 | 93.2 | 93 | 99.5 | 96.4 | 100 | 97.3 | 102 | 100 | 102 | 97.3 |  |  |  |  |  | 95.9 | 96.5 | 95.6 | 90 | 96.4 | 0 | 0 | 0 |  | 0 | > 10 | > 10 | > 10 | > 10 | 
CCn1cc(C(=O)O)c(=O)c2cnc(N3CCNCC3)nc21 [pipemidic-acid] | 107 | 99.1 | 103 | 96.9 | 91.9 | 94.2 | 102 | 95.5 | 99.4 | 92.9 | 98.7 | 101 | 97.4 | 104 | 100 | 110 | 108 | 107 | 99.8 | 102 |  |  |  |  |  | 0 | 0 | 0 | 0 |  | > 10 | > 10 |  | > 10 | > 10
O=C(O)CCC(=O)Nc1ccc(S(=O)(=O)Nc2nccs2)cc1 [succinylsulfathiazole] | 94 | 96.2 | 96.1 | 112 | 108 | 93.9 | 100 | 89.6 | 104 | 102 | 95.3 | 100 | 95.7 | 99.9 | 104 |  |  |  |  |  | 97.8 | 97.3 | 98.7 | 92.1 | 112 | 0 | 0 | 0 |  | 0 | > 10 | > 10 | > 10 | > 10 | 
O=C(O)c1ccc2nc(-c3cc(Cl)cc(Cl)c3)oc2c1 [tafamidis-meglumine] | 97.6 | 95.8 | 94.7 | 93.1 | 99.2 | 103 | 88 | 102 | 90.2 | 103 | 100 | 101 | 101 | 97.6 | 100 | 103 | 102 | 99.5 | 99.6 | 96 |  |  |  |  |  | 0 | 0 | 0 | 0 |  | > 10 | > 10 |  | > 10 | > 10
Cc1cccc(C)c1NC(=O)[C@@H](C)N [tocainide] | 105 | 92.3 | 90 | 108 | 103 | 96.8 | 95.8 | 97.5 | 101 | 95.5 | 100 | 102 | 99.2 | 104 | 98.5 | 107 | 102 | 91.5 | 94.2 | 95.3 |  |  |  |  |  | 0 | 0 | 0 | 0 |  | > 10 | > 10 |  | > 10 | > 10

— the supplement of paper PMC13380429
